Source: patent publication US9724347B2, “1-pyrazolyl-3-(4-((2-anilinopyrimidin-4-yl)oxy)napththalen-1-yl) ureas as P38 MAP knase inhibitors” (Respivert Ltd., priority 2011, dated 2017)

Tests used:
[1] = tested on: ICAM-1 expression in BEAS2B cells; experiment: Poly I:C-induced ICAM-1 expression in BEAS2B cells; assay type: cell-based, human; settings: Homo sapiens, BEAS-2B, read-out: PolyIC/ICAM1 IC50 (BEAS2B)
Description: Poly I:C was used in these studies as a simple, RNA virus mimic. Poly I:C-Oligofectamine mixture (1 μg/mL Poly I:C, ±2% Oligofectamine, 25 μL; Invivogen Ltd., San Diego, Calif., and Invitrogen, Carlsbad, Calif., respectively) was transfected into BEAS2B cells (human bronchial epithelial cells, ATCC). Cells were pre-incubated with final concentrations of test compounds for 2 hr and the level of ICAM-1 expression on the cell surface was determined by cell-based ELISA. At a time point 18 hr after poly I:C transfection, cells were fixed with 4% formaldehyde in PBS (100 μL) and then endogenous peroxidase was quenched by the addition of washing buffer (100 μL, 0.05% Tween in PBS: PBS-Tween) containing 0.1% sodium azide and 1% hydrogen peroxide. Cells were washed with wash-buffer (3×200 μL). and after blocking the wells with 5% milk in PBS-Tween (100 μL) for 1 hr, the cells were incubated with anti-human ICAM-1 antibody (50 μL; Cell Signaling Technology, Danvers, Mass.) in 1% BSA PBS overnight at 4° C.
The cells were washed with PBS-Tween (3×200 μL) and incubated with the secondary antibody (100 μL; HRP-conjugated anti-rabbit IgG, Dako Ltd., Glostrup, Denmark). The cells were then incubated with of substrate (50 μL) for 2-20 min, followed by the addition of stop solution (50 μL, 1N H2SO4). The ICAM-1 signal was detected by reading […] the absorbance at 450 nm against a reference wavelength of 655 nm using a spectrophotometer. The cells were then washed with PBS-Tween (3×200 μL) and total cell numbers in each well were determined by reading absorbance at 595 nm after Crystal Violet staining (50 μL of a 2% solution in PBS) and elution by 1% SDS solution (100 μL) in distilled water. The measured OD 450-655 readings were corrected for cell number by dividing with the OD595 reading in each well. The inhibition of ICAM-1 expression was calculated at each concentration of test compound by comparison with vehicle control.

[2] = target: p38 MAPKα isoform (MAPK14) (Homo sapiens (Human), UniProt Q16539); experiment: p38 MAPKα enzyme inhibition (FRET, Z-LYTE); assay type: biochemical
Description: The enzyme inhibitory activities of compounds disclosed herein were determined by FRET using synthetic peptides labelled with both donor and acceptor fluorophores (Z-LYTE, Invitrogen Ltd., Paisley, UK). The inhibitory activities of test compounds against the p38 MAPKα isoform (MAPK14: Invitrogen), were evaluated indirectly by determining the level of activation/phosphorylation of the down-stream molecule, MAPKAP-K2. […] The mixture was incubated for 1 hr at RT. Development reagent (protease, 5 μL) was added for 1 hr prior to detection in a fluorescence microplate reader (Varioskan® Flash, ThermoFisher Scientific). In all cases, the site-specific protease cleaves non-phosphorylated peptide only and eliminates the FRET signal. Phosphorylation levels of each reaction were calculated using the ratio of coumarin emission (donor) over fluorescein emission (acceptor), for which low ratios indicate high phosphorylation and high ratios indicate low phosphorylation levels.

[3] = target: GSK 3α enzyme isoform (Homo sapiens (Human), UniProt P49840); experiment: GSK 3α enzyme inhibition (FRET, Z-LYTE); assay type: biochemical; settings: read-out: IC50 Values for Enzyme Inhibition GSK3α
Description: The enzyme inhibitory activities of compounds disclosed herein were determined by FRET using synthetic peptides labelled with both donor and acceptor fluorophores (Z-LYTE, Invitrogen Ltd., Paisley, UK).
The inhibitory activities of test compounds against the GSK 3α enzyme isoform (Invitrogen), were evaluated by determining the level of activation/phosphorylation of the target peptide.
The GSK3-α protein (500 ng/mL, 2.5 μL) was mixed with the test compound (2.5 μL at either 4 μg/mL, 0.4 μg/mL, 0.04 μg/mL, or 0.004 μg/mL) for 2 hr at RT. The FRET peptide (8 μM, 2.5 μL), which is a phosphorylation target for GSK3α, and ATP (40 μM, 2.5 μL) were then added to the enzyme/compound mixture and the resulting mixture incubated for 1 hr. Development reagent (protease, 5 μL) was added for 1 hr prior to detection in a fluorescence microplate reader (Varioskan® Flash, ThermoFisher Scientific).
In all cases, the site-specific protease cleaves non-phosphorylated peptide only and eliminates the FRET signal. Phosphorylation levels of each reaction were calculated using the ratio of coumarin emission (donor) over fluorescein emission (acceptor), for which low ratios indicate high phosphorylation and high ratios indicate low phosphorylation levels.

[4] = target: p38MAPKγ (MAPK12) (Homo sapiens (Human), UniProt P53778); experiment: p38 MAPKγ enzyme inhibition (FRET, Z-LYTE); assay type: biochemical
Description: The enzyme inhibitory activities of compounds disclosed herein were determined by FRET using synthetic peptides labelled with both donor and acceptor fluorophores (Z-LYTE, Invitrogen Ltd., Paisley, UK). […] Development reagent (protease, 5 μL) was added for 1 hr prior to detection in a fluorescence microplate reader (Varioskan® Flash, Thermo Scientific). In all cases, the site-specific protease cleaves non-phosphorylated peptide only and eliminates the FRET signal. Phosphorylation levels of each reaction were calculated using the ratio of coumarin emission (donor) over fluorescein emission (acceptor), for which low ratios indicate high phosphorylation and high ratios indicate low phosphorylation levels.

[5] = tested on: d-U937 cells; experiment: Cell viability: MTT assay; assay type: cell-based, human; settings: 1 μg/mL
Description: Differentiated U937 cells were pre-incubated with each test compound (final concentration 1 μg/mL or 10 μg/mL in 200 μL media indicated below) under two protocols: the first for 4 hr in 5% FCS RPMI1640 media and the second in 10% FCS RPMI1640 media for 24 h. The supernatant was replaced with new media (200 μL) and MTT stock solution (10 μL, 5 mg/mL) was added to each well. After incubation for 1 hr the media were removed, DMSO (200 μL) was added to each well and the plates were shaken lightly for 1 hr prior to reading the absorbance at 550 nm. The percentage loss of cell viability was calculated for each well relative to vehicle (0.5% DMSO) treatment. Consequently an apparent increase in cell viability for drug treatment relative to vehicle is tabulated as a negative percentage.

p38 MAPKα isoform (MAPK14), sequence (Q16539 whole entry, canonical isoform): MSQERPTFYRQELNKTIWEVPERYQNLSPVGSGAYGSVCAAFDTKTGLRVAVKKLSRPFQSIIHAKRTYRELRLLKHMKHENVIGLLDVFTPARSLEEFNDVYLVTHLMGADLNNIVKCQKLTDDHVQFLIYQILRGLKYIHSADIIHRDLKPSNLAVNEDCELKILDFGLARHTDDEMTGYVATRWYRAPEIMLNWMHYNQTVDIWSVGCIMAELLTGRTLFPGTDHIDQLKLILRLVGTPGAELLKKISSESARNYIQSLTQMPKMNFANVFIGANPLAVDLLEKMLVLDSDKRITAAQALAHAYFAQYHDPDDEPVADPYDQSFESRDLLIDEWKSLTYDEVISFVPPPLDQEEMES
GSK 3α enzyme isoform, sequence (P49840 whole entry, canonical isoform): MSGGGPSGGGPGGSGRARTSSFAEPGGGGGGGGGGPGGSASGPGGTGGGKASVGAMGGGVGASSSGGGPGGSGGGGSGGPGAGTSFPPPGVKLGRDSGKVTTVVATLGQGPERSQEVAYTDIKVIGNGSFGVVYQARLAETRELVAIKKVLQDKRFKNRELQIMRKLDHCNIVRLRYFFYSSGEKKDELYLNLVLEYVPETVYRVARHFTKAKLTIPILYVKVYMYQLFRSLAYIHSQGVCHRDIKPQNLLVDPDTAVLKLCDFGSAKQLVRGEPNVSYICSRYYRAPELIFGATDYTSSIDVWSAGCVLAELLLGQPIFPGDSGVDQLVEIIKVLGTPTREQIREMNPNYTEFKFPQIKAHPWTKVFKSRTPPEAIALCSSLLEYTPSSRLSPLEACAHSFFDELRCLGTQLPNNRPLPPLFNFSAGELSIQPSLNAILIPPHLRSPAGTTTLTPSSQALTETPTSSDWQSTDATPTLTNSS
p38MAPKγ (MAPK12), sequence (P53778 whole entry): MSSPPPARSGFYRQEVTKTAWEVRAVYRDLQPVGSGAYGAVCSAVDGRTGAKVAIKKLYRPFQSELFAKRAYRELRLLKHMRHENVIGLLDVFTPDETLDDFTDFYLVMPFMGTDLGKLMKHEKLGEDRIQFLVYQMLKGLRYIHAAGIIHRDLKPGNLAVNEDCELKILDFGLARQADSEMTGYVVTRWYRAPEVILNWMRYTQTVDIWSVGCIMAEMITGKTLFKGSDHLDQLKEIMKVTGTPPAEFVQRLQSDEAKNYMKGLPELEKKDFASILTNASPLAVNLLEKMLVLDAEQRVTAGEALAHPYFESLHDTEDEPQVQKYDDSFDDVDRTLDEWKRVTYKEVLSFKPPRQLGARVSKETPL

| SMILES | IC50 [1] [nM] | IC50 [2] [nM] | IC50 [3] [nM] | IC50 [4] [nM] | MTT Assay Cell viability at time point in d-U937 Cells ([5]; 4 h) | MTT Assay Cell viability at time point in d-U937 Cells ([5]; 24 h) |
| --- | --- | --- | --- | --- | --- | --- |
| Cc1ccc(-n2nc(C(C)(C)C)cc2NC(=O)Nc2ccc(Oc3ccnc(Nc4ccccc4F)n3)c3ccccc23)cc1 [Example 4, 1-(3-(tert-butyl)-1-(p-tolyl)-1H-pyrazol-5-yl)-3-(4-((2-((2-fluorophenyl)amino)pyrimidin-4-yl)oxy)naphthalen-1-yl)urea] | 144 | 165 | > 16600 | 8200 | −ve (−ve and +ve indicate the value is below and above respectively, the no significant effect threshold defined as 30% inhibition at 1 μg/mL at the time point indicated) | −ve (−ve and +ve indicate the value is below and above respectively, the no significant effect threshold defined as 30% inhibition at 1 μg/mL at the time point indicated) |
| Cc1ccc(-n2nc(C(C)(C)C)cc2NC(=O)Nc2ccc(Oc3ccnc(Nc4cc(C)ccc4C)n3)c3ccccc23)cc1 [Example 10, 1-(3-(tert-butyl)-1-(p-tolyl)-1H-pyrazol-5-yl)-3-(4-((2-((2,5-dimethylphenyl)amino)pyrimidin-4-yl)oxy)naphthalen-1-yl)urea] | 43 | 195 | > 16300 | > 16300 | −ve (−ve and +ve indicate the value is below and above respectively, the no significant effect threshold defined as 30% inhibition at 1 μg/mL at the time point indicated) | −ve (−ve and +ve indicate the value is below and above respectively, the no significant effect threshold defined as 30% inhibition at 1 μg/mL at the time point indicated) |
| Cc1ccc(Nc2nccc(Oc3ccc(NC(=O)Nc4cc(C(C)(C)C)nn4-c4ccc(C)cc4)c4ccccc34)n2)cc1 [Example 11, 1-(3-(tert-butyl)-1-(p-tolyl)-1H-pyrazol-5-yl)-3-(4-((2-(p-tolylamino)pyrimidin-4-yl)oxy)naphthalen-1-yl)urea] | 11 | 356 | > 16700 | > 16700 | −ve (−ve and +ve indicate the value is below and above respectively, the no significant effect threshold defined as 30% inhibition at 1 μg/mL at the time point indicated) | −ve (−ve and +ve indicate the value is below and above respectively, the no significant effect threshold defined as 30% inhibition at 1 μg/mL at the time point indicated) |
| Cc1ccc(-n2nc(C(C)(C)C)cc2NC(=O)Nc2ccc(Oc3ccnc(Nc4cccc(C)c4)n3)c3ccccc23)cc1 [Example 12, 1-(3-(tert-butyl)-1-(p-tolyl)-lH-pyrazol-5-yl)-3-(4-((2-(m-tolylamino)pyrimidin-4-yl)oxy)naphthalen-1-yl)urea] | 2.7 | 169 | > 16700 | > 16700 | −ve (−ve and +ve indicate the value is below and above respectively, the no significant effect threshold defined as 30% inhibition at 1 μg/mL at the time point indicated) | −ve (−ve and +ve indicate the value is below and above respectively, the no significant effect threshold defined as 30% inhibition at 1 μg/mL at the time point indicated) |
| Cc1ccc(-n2nc(C(C)(C)C)cc2NC(=O)Nc2ccc(Oc3ccnc(Nc4cccc(Cl)c4)n3)c3ccccc23)cc1 [Example 13, 1-(3-(tert-butyl)-1-(p-tolyl)-1H-pyrazol-5-yl)-3-(4-((2-((3-chlorophenyl)amino)pyrimidin-4-yl)oxy)naphthalen-1-yl)urea] | 3 | 262 | > 16200 | > 16200 | −ve (−ve and +ve indicate the value is below and above respectively, the no significant effect threshold defined as 30% inhibition at 1 μg/mL at the time point indicated) | −ve (−ve and +ve indicate the value is below and above respectively, the no significant effect threshold defined as 30% inhibition at 1 μg/mL at the time point indicated) |
| COc1cccc(Nc2nccc(Oc3ccc(NC(=O)Nc4cc(C(C)(C)C)nn4-c4ccc(C)cc4)c4ccccc34)n2)c1 [Example 14, 1-(3-(tert-butyl)-1-(p-tolyl)-1H-pyrazol-5-yl)-3-(4-((2-((3-methoxyphenyl)amino)pyrimidin-4-yl)oxy)naphthalen-1-yl)urea] | 9.8 | 119 | > 16300 | > 16300 | −ve (−ve and +ve indicate the value is below and above respectively, the no significant effect threshold defined as 30% inhibition at 1 μg/mL at the time point indicated) | −ve (−ve and +ve indicate the value is below and above respectively, the no significant effect threshold defined as 30% inhibition at 1 μg/mL at the time point indicated) |
| Cc1ccc(-n2nc(C(C)(C)C)cc2NC(=O)Nc2ccc(Oc3ccnc(Nc4cccc(F)c4)n3)c3ccccc23)cc1 [Example 15, 1-(3-(tert-butyl)-1-(p-tolyl)-1H-pyrazol-5-yl)-3-(4-((2-((3-fluorophenyl)amino)pyrimidin-4-yl)oxy)naphthalen-1-yl)urea] | 9.3 | 155 | > 16600 | > 16600 | −ve (−ve and +ve indicate the value is below and above respectively, the no significant effect threshold defined as 30% inhibition at 1 μg/mL at the time point indicated) | −ve (−ve and +ve indicate the value is below and above respectively, the no significant effect threshold defined as 30% inhibition at 1 μg/mL at the time point indicated) |
